In ChEMBL document CHEMBL2440045, “The synthesis and anticancer activity of analogs of the indole phytoalexins brassinin, 1-methoxyspirobrassinol methyl ether and cyclobrassinin” (Bioorg Med Chem, 2013):

What was measured:
Type in all cases: functional, cell-based
[1] = tested on: MDA-MB-231; experiment: Antiproliferative activity against human MDA-MB-231 cells assessed as cell viability after 72 hrs by MTT assay; conditions: MDA-MB-231, 72 h
[2] = tested on: MCF7; experiment: Antiproliferative activity against human MCF7 cells assessed as cell viability after 72 hrs by MTT assay; conditions: MCF7, 72 h
[3] = tested on: HeLa; experiment: Antiproliferative activity against human HeLa cells assessed as cell viability after 72 hrs by MTT assay
[4] = tested on: A549; experiment: Antiproliferative activity against human A549 cells assessed as cell viability after 72 hrs by MTT assay; conditions: A549, 72 h
[5] = tested on: CCRF-CEM; experiment: Antiproliferative activity against human CCRF-CEM cells assessed as cell viability after 72 hrs by MTT assay
[6] = tested on: Jurkat; experiment: Antiproliferative activity against human Jurkat cells assessed as cell viability after 72 hrs by MTT assay

IC50 [1] [µM]	IC50 [2] [µM]	IC50 [3] [µM]	IC50 [4] [µM]	IC50 [5] [µM]	IC50 [6] [µM]	SMILES
33.1	55.1	72.5	62.9	5.9	8.7	c1ccc2c3c([nH]c2c1)SC(N1CCOCC1)=NC3
42.4	95	71.7	91.5	28	75.5	CN(C1=NCc2c([nH]c3ccccc23)S1)c1ccccc1
34.3	43.2	67.2	43.4	4.7	5.2	CNC1=NCc2c([nH]c3ccccc23)S1
30.9	64.3	65	55.3	3.9	5.2	c1ccc2c3c([nH]c2c1)SC(NC1CCCCC1)=NC3
35.5	37.1	40.7	42.2	6.6	7.3	c1ccc2c3c([nH]c2c1)SC(N1CCCCC1)=NC3
21.4	23	16.9	21.4	19.6	17.8	CSC(=S)NCc1cn(C(=O)OC(C)(C)C)c2ccccc12
28	0.72	20.4	6.6	90.7	3.1	CC(C)(C)OC(=O)n1cc(CNC(=S)Nc2ccccc2)c2ccccc21
13	8.5	4.5	6.8	3.8	4.3	CC(C)(C)OC(=O)n1cc(CNC(=S)Nc2ccc(Br)cc2)c2ccccc21
22.2	27.6	10.7	24.3	12	19.8	CC(C)(C)OC(=O)n1cc(CNC(=S)Nc2ccc(F)cc2)c2ccccc21
17.1	8.6	4	7.6	3.8	4.2	CC(C)(C)OC(=O)n1cc(CNC(=S)Nc2ccc(Cl)cc2)c2ccccc21
> 100	92	34	> 100	22	30	COc1ccc(NC(=S)NCc2cn(C(=O)OC(C)(C)C)c3ccccc23)cc1
37.4	30	29	31.3	16	20	Cc1ccc(NC(=S)NCc2cn(C(=O)OC(C)(C)C)c3ccccc23)cc1
8.6	9.3	14	11.5	3.8	3	CC(C)(C)OC(=O)n1cc(CNC(=S)Nc2ccc([N+](=O)[O-])cc2)c2ccccc21
4.5	3.5	4	4	3.5	3	CC(C)(C)OC(=O)n1cc(CNC(=S)Nc2ccc(C(F)(F)F)cc2)c2ccccc21
4.1	3.5	6.6	3.6	2.9	3.6	CC(C)(C)OC(=O)n1cc(CNC(=S)Nc2cc(C(F)(F)F)cc(C(F)(F)F)c2)c2ccccc21
> 100	> 100	> 100	> 100	> 100	> 100	CN(C(=S)NCc1cn(C(=O)OC(C)(C)C)c2ccccc12)c1ccccc1
> 100	> 100	> 100	> 100	> 100	> 100	CNC(=S)NCc1cn(C(=O)OC(C)(C)C)c2ccccc12
37.5	21.5	8	33.5	7	11	CC(C)(C)OC(=O)n1cc(CNC(=S)NC2CCCCC2)c2ccccc21
> 100	> 100	36.8	60.1	37	37.6	CC(C)(C)OC(=O)n1cc(CNC(=S)N2CCCCC2)c2ccccc21
> 100	> 100	80	> 100	> 100	95.8	CC(C)(C)OC(=O)n1cc(CNC(=S)N2CCOCC2)c2ccccc21
35.6	32.9	20.2	31.4	14.4	25.7	CO[C@H]1N(C(=O)OC(C)(C)C)c2ccccc2[C@@]12CN=C(Nc1ccc(C)cc1)S2 (racemic)
35.5	31.5	23	30.5	19	9	CO[C@@H]1N(C(=O)OC(C)(C)C)c2ccccc2[C@@]12CN=C(Nc1ccc(C)cc1)S2 (racemic)

IC50 [1] [µM]	IC50 [2] [µM]	IC50 [3] [µM]	IC50 [4] [µM]	IC50 [5] [µM]	IC50 [6] [µM]	SMILES
37.5	33	31.3	33	18.4	20.2	CO[C@H]1N(C(=O)OC(C)(C)C)c2ccccc2[C@@]12CN=C(Nc1ccc([N+](=O)[O-])cc1)S2 (racemic)
28.6	26.5	32.7	24.6	7.2	9.3	CO[C@H]1N(C(=O)OC(C)(C)C)c2ccccc2[C@@]12CN=C(Nc1ccc(C(F)(F)F)cc1)S2 (racemic)
21.3	11.1	11.3	17.9	6.7	5.6	CO[C@@H]1N(C(=O)OC(C)(C)C)c2ccccc2[C@@]12CN=C(Nc1ccc(C(F)(F)F)cc1)S2 (racemic)
38.6	20.9	34.2	29	17.2	21.5	CO[C@@H]1N(C(=O)OC(C)(C)C)c2ccccc2[C@@]12CN=C(Nc1cc(C(F)(F)F)cc(C(F)(F)F)c1)S2 (racemic)
31.7	1.5	8.2	–	18.3	5.9	CO[C@H]1N(C(=O)OC(C)(C)C)c2ccccc2[C@@]12CN=C(N(C)c1ccccc1)S2 (racemic)
27.5	28	32	28.7	26.6	26	CO[C@@H]1N(C(=O)OC(C)(C)C)c2ccccc2[C@@]12CN=C(N(C)c1ccccc1)S2 (racemic)
> 100	> 100	> 100	> 100	44.4	83.4	CNC1=NC[C@]2(S1)c1ccccc1N(C(=O)OC(C)(C)C)[C@@H]2OC (racemic)
> 100	> 100	> 100	> 100	53	42	CNC1=NC[C@]2(S1)c1ccccc1N(C(=O)OC(C)(C)C)[C@H]2OC (racemic)
26.1	27.5	32	27.7	5.1	5.2	CO[C@H]1N(C(=O)OC(C)(C)C)c2ccccc2[C@@]12CN=C(NC1CCCCC1)S2 (racemic)
41.4	37.2	36.7	38	29.1	27	CO[C@@H]1N(C(=O)OC(C)(C)C)c2ccccc2[C@@]12CN=C(NC1CCCCC1)S2 (racemic)
61.3	52.6	54.9	54.2	26.1	24.9	CO[C@H]1N(C(=O)OC(C)(C)C)c2ccccc2[C@@]12CN=C(N1CCCCC1)S2 (racemic)
69	64.4	62.3	55.4	30.7	33.1	CO[C@@H]1N(C(=O)OC(C)(C)C)c2ccccc2[C@@]12CN=C(N1CCCCC1)S2 (racemic)
69.3	70.1	55.5	> 100	51.4	31.3	CO[C@H]1N(C(=O)OC(C)(C)C)c2ccccc2[C@@]12CN=C(N1CCOCC1)S2 (racemic)
> 100	69.5	76	> 100	35.9	34.5	CO[C@@H]1N(C(=O)OC(C)(C)C)c2ccccc2[C@@]12CN=C(N1CCOCC1)S2 (racemic)
100	100	100	100	100	100	CON1c2ccccc2C2(CN=C(SC)S2)C1O (racemic)
82.8	100	78	100	30.6	34	CSC1=NC[C@]2(S1)c1ccccc1N(C(=O)OC(C)(C)C)[C@@H]2O (racemic)
95	100	93.6	100	27.1	29.8	CSC1=NC[C@]2(S1)c1ccccc1N(C(=O)OC(C)(C)C)[C@H]2O (racemic)
64	27.4	72.4	74	33	47.7	CC(C)(C)OC(=O)N1c2ccccc2[C@@]2(CN=C(Nc3ccccc3)S2)[C@H]1O (racemic)
> 100	2.7	> 100	> 100	64.3	5.3	CN(C1=NC[C@]2(S1)c1ccccc1N(C(=O)OC(C)(C)C)[C@@H]2O)c1ccccc1 (racemic)
32.4	30.3	22.3	28.7	22.8	21.6	CN(C1=NC[C@]2(S1)c1ccccc1N(C(=O)OC(C)(C)C)[C@H]2O)c1ccccc1 (racemic)
–	65	–	–	–	44	CO[C@@H]1N(OC)c2ccccc2[C@@]12CN=C(SC)S2 (racemic)
